Tests used:
Adult male Wistar rats = assay: In vivo feeding after ICV injection, rodent chow consumed in 2 hours; design: species or system rat; settings: for Feeding (g/2 h): rats, ICV, 1-6 nmoles peptide, chow consumed in 2 hours, saline <3 g/2 hours
Method: Adult male Wistar rats were surgically implanted with a chronic intracerebral ventricular (ICV) cannula (Plastic Products, Roanoke, Va.) using a stereotaxic instrument. Several days after the surgery, 1-6 nmoles of each peptide (or saline) was injected into the lateral ventricle of 4-12 rats in a volume of 5-10 μl The quantity of rodent chow consumed in a 2 hour period was measured.

Rat Y4/PP1 (clone) = Rat Y4/PP1 (clone) (Rattus norvegicus, UniProt Q63447); assay: Rat Y4/PP1 [125I]PP binding assay
Rat Y4/PP1 (clone), sequence (Q63447 whole entry): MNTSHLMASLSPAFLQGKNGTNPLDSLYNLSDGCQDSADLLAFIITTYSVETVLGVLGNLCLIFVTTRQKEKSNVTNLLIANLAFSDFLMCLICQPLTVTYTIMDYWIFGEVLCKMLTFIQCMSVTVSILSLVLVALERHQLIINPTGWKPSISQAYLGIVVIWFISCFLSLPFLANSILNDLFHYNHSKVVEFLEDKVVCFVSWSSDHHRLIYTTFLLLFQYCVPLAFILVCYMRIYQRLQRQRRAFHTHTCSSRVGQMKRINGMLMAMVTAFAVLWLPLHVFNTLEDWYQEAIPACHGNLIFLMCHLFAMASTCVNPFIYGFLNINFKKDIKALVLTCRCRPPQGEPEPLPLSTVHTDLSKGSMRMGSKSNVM

Row | affinity for the rat Y4/PP1 receptor (Rat Y4/PP1 (clone)) | Structure (SMILES) | Feeding (g/2 h) (Adult male Wistar rats) | feeding response in rats (Adult male Wistar rats; administered ICV to rats)
1 |  | CC[C@H](C)[C@H](NC(=O)[C@H](Cc1ccc(O)cc1)NC(=O)[C@H](CCCNC(=N)N)NC(=O)[C@H](CCCNC(=N)N)NC(=O)[C@H](CC(C)C)NC(=O)[C@H](CC(=O)O)NC(=O)[C@H](C)NC(=O)[C@H](C)NC(=O)[C@H](Cc1ccc(O)cc1)NC(=O)[C@H](CCC(N)=O)NC(=O)[C@H](C)NC(=O)[C@H](CCSC)NC(=O)[C@H](CCC(N)=O)NC(=O)[C@H](CCC(=O)O)NC(=O)[C@@H]1CCCN1C(=O)[C@@H](NC(=O)[C@H](C)NC(=O)[C@H](CC(N)=O)NC(=O)[C@H](CC(=O)O)NC(=O)CNC(=O)[C@@H]1CCCN1C(=O)[C@H](Cc1ccc(O)cc1)NC(=O)[C@@H](NC(=O)[C@@H]1CCCN1C(=O)[C@H](CCC(=O)O)NC(=O)[C@H](CC(C)C)NC(=O)[C@@H]1CCCN1C(=O)[C@H](C)N)C(C)C)[C@@H](C)O)C(=O)N[C@@H](CC(N)=O)C(=O)N[C@@H](CCSC)C(=O)N[C@@H](CC(C)C)C(=O)N[C@H](C(=O)N[C@@H](CCCNC(=N)N)C(=O)N1CCC[C@H]1C(=O)N[C@@H](CCCNC(=N)N)C(=O)N[C@@H](Cc1ccc(O)cc1)C(N)=O)[C@@H](C)O [hPP, pancreatic polypeptide] | > 5 | 
2 |  | CC[C@H](C)[C@H](NC(=O)[C@H](Cc1ccc(O)cc1)NC(=O)[C@H](Cc1c[nH]cn1)NC(=O)[C@H](CCCNC(=N)N)NC(=O)[C@H](CC(C)C)NC(=O)[C@H](C)NC(=O)[C@@H](N)CO)C(=O)N[C@@H](CC(N)=O)C(=O)N[C@@H](CC(C)C)C(=O)N[C@H](C(=O)N[C@H](C(=O)N[C@@H](CCCNC(=N)N)C(=O)N[C@@H](CCC(N)=O)C(=O)N[C@@H](CCCNC(=N)N)C(=O)N[C@@H](Cc1ccc(O)cc1)C(N)=O)[C@@H](C)O)[C@@H](C)CC [r/h(22-36)NPY, (22-36)NPY] | < 3 | 
3 |  | CC[C@H](C)[C@H](NC(=O)[C@H](Cc1ccc(O)cc1)NC(=O)[C@@H](N)Cc1c[nH]cn1)C(=O)N[C@@H](CC(N)=O)C(=O)N[C@@H](CC(C)C)C(=O)N[C@H](C(=O)N[C@H](C(=O)N[C@@H](CCCNC(=N)N)C(=O)N[C@@H](CCC(N)=O)C(=O)N[C@@H](CCCNC(=N)N)C(=O)N[C@@H](Cc1ccc(O)cc1)C(N)=O)[C@@H](C)O)[C@@H](C)CC [r/h(26-36)NPY, (26-36)NPY] | < 3 | 
4 | very high affinity | CC[C@H](C)[C@H](NC(=O)[C@H](Cc1ccc(O)cc1)NC(=O)[C@H](CCCNC(=N)N)NC(=O)[C@H](CCCNC(=N)N)NC(=O)[C@H](CC(C)C)NC(=O)[C@H](CC(=O)O)NC(=O)[C@H](C)NC(=O)[C@H](C)NC(=O)[C@H](Cc1ccc(O)cc1)NC(=O)[C@H](CCC(N)=O)NC(=O)[C@H](C)NC(=O)[C@H](CCSC)NC(=O)[C@H](CCC(N)=O)NC(=O)[C@H](CCC(=O)O)NC(=O)[C@@H]1CCCN1C(=O)[C@@H](NC(=O)[C@H](C)NC(=O)[C@H](CC(N)=O)NC(=O)[C@H](CC(=O)O)NC(=O)CNC(=O)[C@@H]1CCCN1C(=O)[C@H](Cc1ccc(O)cc1)NC(=O)[C@@H](NC(=O)[C@@H]1CCCN1C(=O)[C@H](CCC(=O)O)NC(=O)[C@H](CC(C)C)NC(=O)[C@@H]1CCCN1C(=O)[C@H](C)N)C(C)C)[C@@H](C)O)C(=O)N[C@@H](CC(N)=O)C(=O)N[C@@H](CCSC)C(=O)N[C@@H](CC(C)C)C(=O)N[C@H](C(=O)N[C@@H](CCCNC(=N)N)C(=O)N1CCC[C@H]1C(=O)N[C@@H](CCCNC(=N)N)C(=O)N[C@@H](Cc1ccc(O)cc1)C(N)=O)[C@@H](C)O [rPP, pancreatic polypeptide] | < 3 | does not induce much feeding

From patent US5919901A (priority 1996, dated 1999)
